From patent publication US20200390729A1, “OPHTHALMIC TOPICAL COMPOSITION COMPRISING DOBESILIC ACID FOR TREATING DISEASES OF THE POSTERIOR SEGMENT OF THE EYE” (LABORATORIOS SALVAT, S.A., priority 2017, published 2020)
Like-named read-outs stand apart in the source and are kept apart here.

Legend:
[1] = test system: TNF-α mRNA; experiment: Anti-inflammatory activity: relative TNF-α mRNA in retinas, streptozotocin diabetic retinopathy model; format: in vivo, SD male rats; conditions: diabetic rats, CDO 10 mg/ml topical 10 μl/eye TID 28 days
Description: Diabetes was induced in SD male rats by single intraperitoneal injection of streptozotocin (STZ) at 60 mg/kg body weight in citrate buffer (pH 4.5). Seven days after STZ administration, blood glucose was measured and the level of 250 mg/dl was considered the threshold value to consider diabetes induction. Ophthalmic treatment with CDO at 10 mg/ml (topical instillation of 10 μl/eye) was initiated once hyperglycemia was confirmed and continued for 28 days three times a day (TID). Rats were randomly divided in 3 groups: I. Control (non-diabetic), II. Diabetic rats with no treatment and III. Diabetic rats with CDO at 10 mg/ml. […]
RNA was isolated from each retina by using the commercial kit SV Total RNA Isolation System (Promega) and stored at −80° C. until use. Relative mRNA levels were quantified using a MX3000 (Stratagene) quantitative PCR system. […]
The qPCR system detects the fluorescence emitted by SYBR, its increase corresponds to exponential increase of the PCR product. The software calculates the threshold cycle (Ct), in which the fluorescence exceeds the background signal. Relative changes in gene expression were calculated using the ΔCt method. […] Relative expression of mRNA in the test samples were determined as fold increase compared with the control sample (non-diabetic).

[2] = Ocular distribution of CDO in rabbits, single dose topical ocular vs. oral; format: in vivo, New Zealand White rabbit; conditions: for concentration at 0.25 h / concentration at 1 h / concentration at 3 h / concentration at 6 h: New Zealand White
Description: In New Zealand White rabbit, weighing approximately 1.8 kg, CDO was administered by topical ocular instillation (33 μl/eye) at 10 mg/ml (composition 2 of Example 1), at 100 mg/ml (composition 5 of Example 1) or by oral gavage at 25 mg/kg in aqueous solution (from composition 1 of Example 1). At 15, 60, 180 and 360 minutes post-administration, animals were euthanized and plasma and ocular tissues including retina/choroid and optic nerve were collected.
(§1) Bioanalysis of CDO was performed depending on the type of matrix. In the case of plasma, proteins were precipitated using methanol. In the case of tissues, samples were grinded in a Mini Bead Beater using zirconium beads and methanol/water (1:1) (v/v) as solvent. After centrifugation, samples were analyzed by UPLC-MS/MS.
(§2) Chromatographic separation was carried out using an Acquity CSH Fluoro Phenyl column (1.7 μm, 50×2.1 mm). Mobile phase consisted of a gradient using 0.1% formic acid in water and acetonitrile from 5% to 45% in 4.5 min at a flow rate of 0.6 ml/min.
(§3) With regard to the mass spectrometric detection, the electrospray ionization source worked to record negative ions. Multiple Reaction Monitoring (MRM) acquisition mode of the deprotonated molecular ions was performed. The transition monitored for CDO was m/z 189.0→80.1 with a cone voltage of 45 V and collision energy of 25 eV.

[3] = Ocular distribution of CDO following 28-day topical ocular repeated dose in diabetic rats; format: in vivo; conditions: rat, retina, day 29, 0.25 h after single instillation, read-out: CDO μg/g tissue Retina
Description: 28-day repeated dose study in the diabetic rats was performed to assess CDO levels in retina at the steady state. CDO compositions 2 and 5 of Example 1 were administered by topical ocular instillation (10 μl/eye) TID for 28 days. At day 29 CDO was instilled a single time and retinas were collected 15 minutes post-administration.
(§4) As described in Example 2.

[4] = test system: diabetic rats induced by streptozotocin; experiment: Retinal vascularity (Evans Blue staining) in diabetic retinopathy model induced by streptozotocin; format: in vivo, SD male rats; conditions: diabetic rats (group III), CDO 10 mg/ml topical 10 μl/eye TID 28 days
Description: Diabetes was induced in SD male rats by single intraperitoneal injection of streptozotocin (STZ) at 60 mg/kg body weight in citrate buffer (pH 4.5). Seven days after STZ administration, blood glucose was measured and the level of 250 mg/dl was considered the threshold value to consider diabetes induction. Ophthalmic treatment with CDO at 10 mg/ml (topical instillation of 10 μl/eye) was initiated once hyperglycemia was confirmed and continued for 28 days three times a day (TID). Rats were randomly divided in 3 groups: I. Control (non-diabetic), II. Diabetic rats with no treatment and III. Diabetic rats with CDO at 10 mg/ml.
At day 29 CDO was instilled a single time at 10 mg/ml in the group III, rats were euthanized and retinas were collected 15 minutes post-administration.
Retinal vascularity was observed by Evans Blue (EB) staining, based on the ability of EB to bind serum albumin immediately after intravenous injection. Thus Evans Blue 3% was injected through the tail vein at 1 ml/kg at 60 minutes before euthanasia at day 29. Eyeballs were fixed in paraformaldehyde 4%. Retinas were immediately after dissected and mounted in slides and observed by fluorescence microscopy.

[5] = Ocular distribution of etamsylate following topical ocular single dose in rats; format: in vivo, Sprague Dawley (SD) rat; conditions: Sprague-Dawley, rat
Description: as §1, §2, §3
At 15, 60 and 180 minutes post-administration, animals were euthanized and ocular tissues including retina, and optic nerve were collected.
as §4

[6] = optic nerve, rabbit, Oral 25 mg/Kg = 45 mg, read-out: CDO μg/g tissue Optic nerve
[7] = optic nerve, rabbit, Topical eye administration 10 mg/ml = 0.3 mg, read-out: CDO μg/g tissue Optic nerve
[8] = optic nerve, rabbit, Topical eye administration 100 mg/ml = 3.3 mg, read-out: CDO μg/g tissue Optic nerve
[9] = retina/choroid, rabbit, Oral 25 mg/Kg = 45 mg, read-out: CDO μg/g tissue Retina/Choroid
[10] = retina/choroid, rabbit, Topical eye administration 10 mg/ml = 0.3 mg, read-out: CDO μg/g tissue Retina/Choroid
[11] = retina/choroid, rabbit, Topical eye administration 100 mg/ml = 3.3 mg, read-out: CDO μg/g tissue Retina/Choroid
[12] = optic nerve, 0.126 mg, read-out: CDO μg/g tissue Optic nerve
[13] = optic nerve, 1.26 mg, read-out: CDO μg/g tissue Optic nerve
[14] = retina, 0.126 mg, read-out: CDO μg/g tissue Retina
[15] = retina, 1.26 mg, read-out: CDO μg/g tissue Retina

O=S(=O)(O)c1cc(O)ccc1O [CDO, Calcium dobesilate monohydrate]
TNF-α mRNA expression of treated group vs control group (non-diabetic) [1]: slightly lower than the control group
concentration at 0.25 h [2, 6]: 0.74 µg/g
concentration at 1 h [2, 6]: 1.61 µg/g
concentration at 3 h [2, 6]: 0.49 µg/g
concentration at 6 h [2, 6]: 0.1 µg/g
concentration at 0.25 h [2, 7]: 0.23 µg/g
concentration at 1 h [2, 7]: 0.76 µg/g
concentration at 3 h [2, 7]: 0.65 µg/g
concentration at 6 h [2, 7]: 0.45 µg/g
concentration at 0.25 h [2, 8]: 14.4 µg/g
concentration at 1 h [2, 8]: 22.9 µg/g
concentration at 3 h [2, 8]: 4.5 µg/g
concentration at 6 h [2, 8]: 1.92 µg/g
concentration at 0.25 h [2, 9]: 0.43 µg/g
concentration at 1 h [2, 9]: 0.95 µg/g
concentration at 3 h [2, 9]: 0.28 µg/g
concentration at 6 h [2, 9]: 0.12 µg/g
concentration at 0.25 h [2, 10]: 0.27 µg/g
concentration at 1 h [2, 10]: 0.29 µg/g
concentration at 3 h [2, 10]: 0.16 µg/g
concentration at 6 h [2, 10]: 0.11 µg/g
concentration at 0.25 h [2, 11]: 7.88 µg/g
concentration at 1 h [2, 11]: 6.41 µg/g
concentration at 3 h [2, 11]: 3.47 µg/g
concentration at 6 h [2, 11]: 1.14 µg/g
CDO amounts in target tissues (optic nerve and retina choroids) 6 hours after topical ocular administration ([2]; rabbit, 6 hours after topical ocular administration): could be detected
values of CDO in target tissues, topical vs. single oral dose ([2]; rabbits, topical eye single low dose 0.3 mg vs oral 45 mg): equivalent to those of a single oral dose (45 mg)
levels of the drug in target tissues, topical vs. single oral dose ([2]; rabbits, topical single dose CDO 3.3 mg vs single oral dose): higher levels of the drug are detected than those obtained following a single oral dose
concentration at 0.25 h ([3]; 0.1 mg/eye, topical eye 28 days (3 administrations/day, 10 μl/eye) 10 mg/ml): 19.5 µg/g
concentration at 0.25 h ([3]; 1 mg/eye, topical eye 28 days (3 administrations/day, 10 μl/eye) 100 mg/ml): 218 µg/g
Retinal vascularity (fluorescence microscopy, Evans Blue) [4]: well preserved retinas, with well-defined vessels with no evidence of vascular damages
concentration at 0.25 h [5, 12]: 36.5 µg/g
concentration at 1 h [5, 12]: 8.13 µg/g
concentration at 3 h [5, 12]: 2.32 µg/g
concentration at 0.25 h [5, 13]: 25.2 µg/g
concentration at 1 h [5, 13]: 15.8 µg/g
concentration at 3 h [5, 13]: 2.67 µg/g
concentration at 0.25 h [5, 14]: 4.39 µg/g
concentration at 1 h [5, 14]: 3.48 µg/g
concentration at 3 h [5, 14]: 0.27 µg/g
concentration at 0.25 h [5, 15]: 4.05 µg/g
concentration at 1 h [5, 15]: 2.42 µg/g
concentration at 3 h [5, 15]: 1.56 µg/g
